In paper PMC5218480 (PLoS ONE, 2017):

Test system: MV-4-11 cells
Test: Gene expression microarray analysis (Affymetrix PrimeView) and GSEA
Type: cell-based, human
Design: RFU PODN (11730768_x_at) / Fold change /veh PODN (11730768_x_at) / RFU LINC00158 (11744669_a_at) / Fold change /veh LINC00158 (11744669_a_at) / RFU DUSP10 (11751237_a_at) / Fold change /veh DUSP10 (11751237_a_at) / RFU ID3 (11757404_x_at) / Fold change /veh ID3 (11757404_x_at) / RFU PLEKHG5 (11737974_s_at) / Fold change /veh PLEKHG5 (11737974_s_at) / RFU LRRC4B (11730491_at) / Fold change /veh LRRC4B (11730491_at) / RFU GIMAP4 (11747438_a_at) / Fold change /veh GIMAP4 (11747438_a_at) / RFU KRT8 (11758183_x_at) / Fold change /veh KRT8 (11758183_x_at) / RFU CNN1 (11734310_a_at) / Fold change /veh CNN1 (11734310_a_at) / RFU VPS37D (11726825_at) / Fold change /veh VPS37D (11726825_at) / RFU C10orf10 (11716522_x_at) / Fold change /veh C10orf10 (11716522_x_at) / RFU KIR2DL2 /// KIR2DL4 /// KIR2DL5A /// KIR2DL5B /// KIR2DS1 /// KIR2DS2 /// KIR2DS3 /// KIR2DS4 /// KIR3DL3 /// KIR3DL3 /// KIR3DS1 (11738374_at) / Fold change /veh KIR2DL2 /// KIR2DL4 /// KIR2DL5A /// KIR2DL5B /// KIR2DS1 /// KIR2DS2 /// KIR2DS3 /// KIR2DS4 /// KIR3DL3 /// KIR3DL3 /// KIR3DS1 (11738374_at) / RFU C1QL1 (11718748_at) / Fold change /veh C1QL1 (11718748_at) / RFU TMPRSS4 (11747572_a_at) / Fold change /veh TMPRSS4 (11747572_a_at) / RFU HAMP (11756126_x_at) / Fold change /veh HAMP (11756126_x_at) / RFU RNFT2 (11725882_a_at) / Fold change /veh RNFT2 (11725882_a_at) / RFU NR4A2 (11747474_a_at) / Fold change /veh NR4A2 (11747474_a_at) / RFU ABCC12 (11746883_a_at) / Fold change /veh ABCC12 (11746883_a_at) / RFU TMEM136 (11760407_x_at) / Fold change /veh TMEM136 (11760407_x_at) / RFU CLDN22 /// WWC2 (11732394_at) / Fold change /veh CLDN22 /// WWC2 (11732394_at) / RFU HLA-DPB1 (11760878_x_at) / Fold change /veh HLA-DPB1 (11760878_x_at) / RFU SPINT1 (11716480_a_at) / Fold change /veh SPINT1 (11716480_a_at) / RFU GAP43 (11754022_s_at) / Fold change /veh GAP43 (11754022_s_at) / RFU A4GNT (11735810_at) / Fold change /veh A4GNT (11735810_at) / RFU PRB3 (11715151_x_at) / Fold change /veh PRB3 (11715151_x_at) / RFU TUBB4B (11761932_at) / Fold change /veh TUBB4B (11761932_at) / RFU CAPN14 (11732068_a_at) / Fold change /veh CAPN14 (11732068_a_at) / RFU TMCC2 (11721928_a_at) / Fold change /veh TMCC2 (11721928_a_at) / RFU IRGQ (11745062_a_at) / Fold change /veh IRGQ (11745062_a_at) / RFU FAM174B (11720279_a_at) / Fold change /veh FAM174B (11720279_a_at) / RFU TMPRSS4 (11748680_a_at) / Fold change /veh TMPRSS4 (11748680_a_at) / RFU FAM212B (11763350_a_at) / Fold change /veh FAM212B (11763350_a_at) / RFU PLEKHG5 (11743358_a_at) / Fold change /veh PLEKHG5 (11743358_a_at) / RFU ZSCAN30 (11745921_a_at) / Fold change /veh ZSCAN30 (11745921_a_at) / RFU CMKLR1 (11741424_a_at) / Fold change /veh CMKLR1 (11741424_a_at) / RFU LOC101060620 /// MAPK8IP1 (11723275_at) / Fold change /veh LOC101060620 /// MAPK8IP1 (11723275_at) / RFU SPTSSB (11747773_x_at) / Fold change /veh SPTSSB (11747773_x_at) / RFU PRSS12 (11739890_at) / Fold change /veh PRSS12 (11739890_at) / RFU BIN1 (11741810_x_at) / Fold change /veh BIN1 (11741810_x_at) / RFU WNT11 (11732464_a_at) / Fold change /veh WNT11 (11732464_a_at) / RFU C10orf10 (11716521_a_at) / Fold change /veh C10orf10 (11716521_a_at) / RFU C5orf56 (11738089_at) / Fold change /veh C5orf56 (11738089_at) / RFU CYB561 (11721691_x_at) / Fold change /veh CYB561 (11721691_x_at) / RFU ANKRD19P (11752326_a_at) / Fold change /veh ANKRD19P (11752326_a_at) / RFU OR2T12 /// OR2T33 /// OR2T8 (11738714_s_at) / Fold change /veh OR2T12 /// OR2T33 /// OR2T8 (11738714_s_at) / RFU VCAN (11748164_a_at) / Fold change /veh VCAN (11748164_a_at) / RFU JSRP1 (11732532_at) / Fold change /veh JSRP1 (11732532_at) / RFU KRTAP10-11 (11738290_x_at) / Fold change /veh KRTAP10-11 (11738290_x_at) / RFU MYO3A (11730013_a_at) / Fold change /veh MYO3A (11730013_a_at) / RFU EBF3 (11725865_a_at) / Fold change /veh EBF3 (11725865_a_at) / RFU CAMK2N1 (11719241_x_at) / Fold change /veh CAMK2N1 (11719241_x_at) / RFU C5orf56 (11738088_a_at) / Fold change /veh C5orf56 (11738088_a_at) / RFU OLFML3 (11715873_a_at) / Fold change /veh OLFML3 (11715873_a_at) / RFU LOC100653217 /// NTM (11731650_a_at) / Fold change /veh LOC100653217 /// NTM (11731650_a_at) / RFU MAPK11 (11762145_a_at) / Fold change /veh MAPK11 (11762145_a_at) / RFU FIZ1 (11724087_x_at) / Fold change /veh FIZ1 (11724087_x_at) / RFU OASL (11726364_x_at) / Fold change /veh OASL (11726364_x_at) / RFU SOX15 (11748057_x_at) / Fold change /veh SOX15 (11748057_x_at) / RFU CD79A (11719716_a_at) / Fold change /veh CD79A (11719716_a_at) / RFU HIST1H1D (11736915_at) / Fold change /veh HIST1H1D (11736915_at) / RFU CASKIN2 (11723855_a_at) / Fold change /veh CASKIN2 (11723855_a_at) / RFU LOC730098 (11760151_x_at) / Fold change /veh LOC730098 (11760151_x_at) / RFU OR4N2 (11742367_at) / Fold change /veh OR4N2 (11742367_at) / RFU PRRT2 (11749266_a_at) / Fold change /veh PRRT2 (11749266_a_at) / RFU SNX32 (11753110_a_at) / Fold change /veh SNX32 (11753110_a_at) / RFU CDHR5 (11726645_a_at) / Fold change /veh CDHR5 (11726645_a_at) / RFU RCAN1 (11760418_a_at) / Fold change /veh RCAN1 (11760418_a_at) / RFU FAM167A (11723789_a_at) / Fold change /veh FAM167A (11723789_a_at) / RFU FAM26E (11764081_at) / Fold change /veh FAM26E (11764081_at) / RFU ISYNA1 (11749810_s_at) / Fold change /veh ISYNA1 (11749810_s_at) / RFU ACY1 (11761880_at) / Fold change /veh ACY1 (11761880_at) / RFU 11764098_at / Fold change /veh 11764098_at / RFU SAMD14 (11745864_x_at) / Fold change /veh SAMD14 (11745864_x_at) / RFU NPB (11741838_a_at) / Fold change /veh NPB (11741838_a_at) / RFU TMPRSS6 (11731388_a_at) / Fold change /veh TMPRSS6 (11731388_a_at) / RFU KRTAP10-2 (11738614_at) / Fold change /veh KRTAP10-2 (11738614_at) / RFU ARHGAP8 /// PRR5-ARHGAP8 (11727945_x_at) / Fold change /veh ARHGAP8 /// PRR5-ARHGAP8 (11727945_x_at) / RFU KRTAP5-7 /// NADSYN1 (11734609_at) / Fold change /veh KRTAP5-7 /// NADSYN1 (11734609_at) / RFU RASL12 (11751679_a_at) / Fold change /veh RASL12 (11751679_a_at) / RFU CDKN2B (11736163_a_at) / Fold change /veh CDKN2B (11736163_a_at) / RFU PRF1 (11729649_at) / Fold change /veh PRF1 (11729649_at) / RFU, ZNF638 /// ZNF638-IT1 / Fold change vs veh, ZNF638 /// ZNF638-IT1 / RFU, PANK3 / Fold change vs veh, PANK3 / RFU, SH3YL1 / Fold change vs veh, SH3YL1 / RFU, ZEB2 / Fold change vs veh, ZEB2 / RFU, NRIP1 / Fold change vs veh, NRIP1 / RFU, PTTG1IP / Fold change vs veh, PTTG1IP / RFU, CAPN2 / Fold change vs veh, CAPN2 / RFU, MED14 / Fold change vs veh, MED14 / RFU, SNORA58 / Fold change vs veh, SNORA58 / RFU, C1orf63 / Fold change vs veh, C1orf63 / RFU, LRRFIP1 / Fold change vs veh, LRRFIP1 / RFU, NDUFAF7 / Fold change vs veh, NDUFAF7 / RFU, SLC12A2 / Fold change vs veh, SLC12A2 / RFU, IBTK / Fold change vs veh, IBTK / RFU, ESF1 / Fold change vs veh, ESF1 / Fold change vs veh, TMEM50B / RFU, TAOK1 / Fold change vs veh, TAOK1 / RFU, ACBD3 / Fold change vs veh, ACBD3 / RFU, TMA16 / Fold change vs veh, TMA16 / RFU, RWDD3 / Fold change vs veh, RWDD3 / RFU, BCAT1 / Fold change vs veh, BCAT1 / RFU, EDEM3 / Fold change vs veh, EDEM3 / RFU, TMEM33 / Fold change vs veh, TMEM33 / RFU, WDR75 / Fold change vs veh, WDR75 / RFU, AHCTF1 / Fold change vs veh, AHCTF1 / RFU, TFRC / Fold change vs veh, TFRC / RFU, ZDHHC17 / Fold change vs veh, ZDHHC17 / RFU, NOM1 / Fold change vs veh, NOM1 / RFU, ARL8B / Fold change vs veh, ARL8B / RFU, ZBTB11 / Fold change vs veh, ZBTB11 / RFU, TAMM41 / Fold change vs veh, TAMM41 / RFU, KIAA1704 /// LOC100996395 / Fold change vs veh, KIAA1704 /// LOC100996395 / RFU, ING1 / Fold change vs veh, ING1 / RFU, TRMT61B / Fold change vs veh, TRMT61B / RFU, FUBP3 / Fold change vs veh, FUBP3 / RFU, TP53 / Fold change vs veh, TP53 / RFU, TNKS2 / Fold change vs veh, TNKS2 / RFU, ZFP14 / Fold change vs veh, ZFP14 / RFU, ACTR2 / Fold change vs veh, ACTR2 / RFU, PPP3R1 / Fold change vs veh, PPP3R1 / RFU, PIK3R1 / Fold change vs veh, PIK3R1 / RFU, HNRNPA1 / Fold change vs veh, HNRNPA1 / RFU, RNF170 / Fold change vs veh, RNF170 / RFU, ZNF28 / Fold change vs veh, ZNF28 / RFU, RNGTT / Fold change vs veh, RNGTT / RFU, OGT / Fold change vs veh, OGT / RFU, BRD1 / Fold change vs veh, BRD1 / RFU, MARS / Fold change vs veh, MARS / RFU, ZNF655 / Fold change vs veh, ZNF655 / RFU, FAHD1 / Fold change vs veh, FAHD1 / RFU, BDP1 / Fold change vs veh, BDP1 / RFU, LRRCC1 / Fold change vs veh, LRRCC1 / RFU, ARID1A / Fold change vs veh, ARID1A / RFU, ZNF146 / Fold change vs veh, ZNF146 / RFU, ZNF330 / Fold change vs veh, ZNF330 / RFU, GPN3 / Fold change vs veh, GPN3 / RFU, C9orf123 / Fold change vs veh, C9orf123 / RFU, N4BP2L2 / Fold change vs veh, N4BP2L2 / RFU, ARFIP1 / Fold change vs veh, ARFIP1 / RFU, FAM179B / Fold change vs veh, FAM179B / RFU, BCL10 / Fold change vs veh, BCL10 / RFU, UHRF1BP1L / Fold change vs veh, UHRF1BP1L / RFU, BET1 / Fold change vs veh, BET1 / RFU, CNOT2 / Fold change vs veh, CNOT2 / RFU, ZNF268 / Fold change vs veh, ZNF268 / Fold change vs veh, ZNF507 / RFU, DGCR2 / Fold change vs veh, DGCR2 / RFU, WDSUB1 / Fold change vs veh, WDSUB1 / Fold change vs veh, HSP90B1 /// MIR3652 / RFU, ADSS / Fold change vs veh, ADSS / RFU, GK / Fold change vs veh, GK / RFU, ZNF148 / Fold change vs veh, ZNF148 / RFU, TAF9 / Fold change vs veh, TAF9 / RFU, SLC1A5 / Fold change vs veh, SLC1A5 / RFU, SLMO2 / Fold change vs veh, SLMO2 / RFU, ABCC4 / Fold change vs veh, ABCC4 / RFU, LOC101060439 /// RAP1B / Fold change vs veh, LOC101060439 /// RAP1B / RFU, RFX7 / Fold change vs veh, RFX7 / RFU, GTPBP10 / Fold change vs veh, GTPBP10 / RFU, CNEP1R1 / Fold change vs veh, CNEP1R1 / RFU, BIVM-ERCC5 /// ERCC5 / Fold change vs veh, BIVM-ERCC5 /// ERCC5 / RFU, ILF3 / Fold change vs veh, ILF3 / RFU 11762660_at / Fold change /veh 11762660_at / RFU VCAN (11757783_s_at) / Fold change /veh VCAN (11757783_s_at) / RFU DDX43 (11728927_at) / Fold change /veh DDX43 (11728927_at) / RFU KRT8 (11758188_x_at) / Fold change /veh KRT8 (11758188_x_at) / RFU NKD1 (11759106_at) / Fold change /veh NKD1 (11759106_at) / RFU SRD5A1 (11742802_a_at) / Fold change /veh SRD5A1 (11742802_a_at) / RFU TPSAB1 /// TPSB2 (11721975_s_at) / Fold change /veh TPSAB1 /// TPSB2 (11721975_s_at) / RFU GSTM3 (11746129_a_at) / Fold change /veh GSTM3 (11746129_a_at) / RFU IL23R (11737362_x_at) / Fold change /veh IL23R (11737362_x_at) / RFU TMEM51 (11727254_a_at) / Fold change /veh TMEM51 (11727254_a_at) / RFU PIWIL2 (11732686_x_at) / Fold change /veh PIWIL2 (11732686_x_at) / RFU ORM1 (11744905_x_at) / Fold change /veh ORM1 (11744905_x_at) / RFU CCDC152 (11743942_at) / Fold change /veh CCDC152 (11743942_at) / RFU ECM1 (11717891_a_at) / Fold change /veh ECM1 (11717891_a_at) / RFU IL23R (11748794_a_at) / Fold change /veh IL23R (11748794_a_at) / RFU TNFAIP8L3 (11732012_x_at) / Fold change /veh TNFAIP8L3 (11732012_x_at) / RFU MBOAT4 (11741988_at) / Fold change /veh MBOAT4 (11741988_at) / RFU 11764193_at / Fold change /veh 11764193_at / RFU TMEM53 (11763286_at) / Fold change /veh TMEM53 (11763286_at) / RFU MAGEB2 (11727129_at) / Fold change /veh MAGEB2 (11727129_at) / RFU TMEM200A (11744735_a_at) / Fold change /veh TMEM200A (11744735_a_at) / RFU CCDC152 (11751479_a_at) / Fold change /veh CCDC152 (11751479_a_at) / RFU FAM211A (11726209_a_at) / Fold change /veh FAM211A (11726209_a_at) / RFU RGS16 (11746705_a_at) / Fold change /veh RGS16 (11746705_a_at) / RFU VCAN (11755009_s_at) / Fold change /veh VCAN (11755009_s_at) / RFU RHOB (11743442_s_at) / Fold change /veh RHOB (11743442_s_at) / RFU RGS16 (11720943_a_at) / Fold change /veh RGS16 (11720943_a_at) / RFU RGS16 (11720944_at) / Fold change /veh RGS16 (11720944_at) / RFU, VPS4B / Fold change vs veh, VPS4B / RFU, CREB1 / Fold change vs veh, CREB1 / RFU, DNAJC13 / Fold change vs veh, DNAJC13 / RFU, GNAQ / Fold change vs veh, GNAQ / RFU, CDK5R1 / Fold change vs veh, CDK5R1 / RFU, ZRANB3 / Fold change vs veh, ZRANB3 / RFU, CUL4A / Fold change vs veh, CUL4A / RFU, CCNY / Fold change vs veh, CCNY / RFU, UFL1 / Fold change vs veh, UFL1 / RFU, COG3 / Fold change vs veh, COG3 / RFU, DIAPH2 / Fold change vs veh, DIAPH2 / RFU, SKA2 / Fold change vs veh, SKA2 / RFU, AFF3 / Fold change vs veh, AFF3 / RFU, LMF1 / Fold change vs veh, LMF1 / RFU, IPO11 / Fold change vs veh, IPO11 / RFU, DFFB / Fold change vs veh, DFFB / RFU, FOXP1 / Fold change vs veh, FOXP1 / RFU, CARD8 / Fold change vs veh, CARD8 / RFU, STRN3 / Fold change vs veh, STRN3 / RFU, ADK / Fold change vs veh, ADK / RFU, RASSF2 / Fold change vs veh, RASSF2 / RFU, WIPF1 / Fold change vs veh, WIPF1 / RFU, LARP1B / Fold change vs veh, LARP1B / RFU, RASA1 / Fold change vs veh, RASA1 / RFU, RB1 / Fold change vs veh, RB1 / RFU, PPFIA1 / Fold change vs veh, PPFIA1 / RFU, MAT2A / Fold change vs veh, MAT2A / RFU, CCT5 / Fold change vs veh, CCT5 / RFU, WDR92 / Fold change vs veh, WDR92 / RFU, CUX1 / Fold change vs veh, CUX1 / RFU, TTC7A / Fold change vs veh, TTC7A / RFU, TMEM135 / Fold change vs veh, TMEM135 / RFU, DEPTOR / Fold change vs veh, DEPTOR / RFU, CPM / Fold change vs veh, CPM / RFU, DNAJB6 / Fold change vs veh, DNAJB6 / RFU, CACNA2D3 / Fold change vs veh, CACNA2D3 / RFU, DTX4 / Fold change vs veh, DTX4 / RFU, TFCP2 / Fold change vs veh, TFCP2 / RFU, GMCL1 /// GMCL1P1 / Fold change vs veh, GMCL1 /// GMCL1P1 / RFU, AEBP2 / Fold change vs veh, AEBP2 / RFU, SNHG1 /// SNORD22 /// SNORD25 /// SNORD26 /// SNORD27 /// SNORD28 /// SNORD29 /// SNORD31 / Fold change vs veh, SNHG1 /// SNORD22 /// SNORD25 /// SNORD26 /// SNORD27 /// SNORD28 /// SNORD29 /// SNORD31 / Fold change (Aza/veh), C12orf56 (ProbeSet 11735607_a_at) / Fold change (ACY-1035/veh), C12orf56 (ProbeSet 11735607_a_at) / Fold change (Aza/veh), FGFR1OP (ProbeSet 11751329_s_at) / Fold change (ACY-1035/veh), FGFR1OP (ProbeSet 11751329_s_at) / Fold change (Aza/veh), VPS36 (ProbeSet 11739960_a_at) / Fold change (ACY-1035/veh), VPS36 (ProbeSet 11739960_a_at) / RFU SYPL1 (11715823_x_at) / Fold change /veh SYPL1 (11715823_x_at) / RFU IGFBP7 (11715501_s_at) / Fold change /veh IGFBP7 (11715501_s_at) / RFU REEP3 (11722064_at) / Fold change /veh REEP3 (11722064_at) / RFU IGLL1 (11728026_x_at) / Fold change /veh IGLL1 (11728026_x_at): dose or concentration left out as unconfirmed
Settings: MV-4-11 cells, 48 hours

## Nc1ncn([C@@H]2O[C@H](CO)[C@@H](O)[C@H]2O)c(=O)n1 [azacitidine]
  RFU DDX43 (11728927_at): 12.02 RFU
